pEC50: −log10 of the molar value.
Experiments:
human TRPV1 channel = human TRPV1 channel (Homo sapiens, UniProt Q8NER1); assay: TRPV1 channel Ca2+ fluorescent; assay type: cell-based; details: for TRPV1 channel Ca2+ signal Emax: normalized to signal with 1 µM capsaicin, HEK293T-TRPV1 cells
[1] = test system: nontransfected HEK293T cells; assay: Ca2+ fluorescent assay in nontransfected HEK293T cells; assay type: cell-based; details: 10 µM for XLR-11, UR-144, AM1220
TRPV1 channels = details: read-out: EC50 for TRPV1 channel activation; ref Soethoudt et al., 2017; cited from earlier work
[2] = target: human cannabinoid type-1 (CB1) receptor (Homo sapiens, UniProt P21554); assay type: cell-based
human cannabinoid type-1 (CB1) receptor, sequence (P21554 whole entry): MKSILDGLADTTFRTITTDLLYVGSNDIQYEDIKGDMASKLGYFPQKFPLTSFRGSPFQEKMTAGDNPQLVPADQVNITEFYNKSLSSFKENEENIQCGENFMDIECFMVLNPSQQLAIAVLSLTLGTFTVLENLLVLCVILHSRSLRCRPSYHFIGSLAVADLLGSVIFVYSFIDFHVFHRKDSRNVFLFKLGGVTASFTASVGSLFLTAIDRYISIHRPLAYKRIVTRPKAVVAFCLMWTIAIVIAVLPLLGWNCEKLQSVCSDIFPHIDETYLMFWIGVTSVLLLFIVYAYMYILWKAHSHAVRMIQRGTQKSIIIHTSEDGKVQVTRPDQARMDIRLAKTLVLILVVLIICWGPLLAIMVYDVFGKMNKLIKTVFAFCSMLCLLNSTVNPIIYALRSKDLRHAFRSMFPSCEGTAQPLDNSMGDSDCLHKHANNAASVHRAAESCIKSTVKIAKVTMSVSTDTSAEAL

human TRPV1 channel, sequence (Q8NER1 whole entry): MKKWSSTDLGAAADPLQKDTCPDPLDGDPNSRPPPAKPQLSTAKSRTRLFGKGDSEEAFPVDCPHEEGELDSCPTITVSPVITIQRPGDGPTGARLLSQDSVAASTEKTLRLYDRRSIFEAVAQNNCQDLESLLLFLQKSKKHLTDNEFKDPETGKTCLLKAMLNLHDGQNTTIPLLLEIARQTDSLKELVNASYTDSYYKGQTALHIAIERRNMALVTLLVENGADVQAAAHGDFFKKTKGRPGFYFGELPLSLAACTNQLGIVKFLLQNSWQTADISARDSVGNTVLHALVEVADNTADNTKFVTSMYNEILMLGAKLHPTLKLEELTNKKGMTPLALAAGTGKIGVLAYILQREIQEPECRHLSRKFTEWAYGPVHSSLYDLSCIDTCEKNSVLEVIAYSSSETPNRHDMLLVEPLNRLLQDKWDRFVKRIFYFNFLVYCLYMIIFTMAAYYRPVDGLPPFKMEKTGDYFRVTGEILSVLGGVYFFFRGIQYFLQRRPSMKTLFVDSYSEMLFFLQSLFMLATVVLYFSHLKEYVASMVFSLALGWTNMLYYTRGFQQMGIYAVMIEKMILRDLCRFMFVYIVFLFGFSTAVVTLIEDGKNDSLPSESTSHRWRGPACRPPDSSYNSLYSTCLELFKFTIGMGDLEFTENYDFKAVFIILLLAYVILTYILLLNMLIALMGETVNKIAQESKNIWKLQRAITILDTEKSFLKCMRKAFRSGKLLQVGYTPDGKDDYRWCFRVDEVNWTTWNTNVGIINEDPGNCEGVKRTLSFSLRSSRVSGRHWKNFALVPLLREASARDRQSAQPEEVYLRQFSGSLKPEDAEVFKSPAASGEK

Structure (SMILES)	TRPV1 channel Ca2+ signal Emax (human TRPV1 channel)	Ca2+ transients in nontransfected HEK293T cells [1]	pEC50 (human TRPV1 channel)	pEC50 (TRPV1 channels)	CB1 receptor-mediated activation of the GIRK channels [2]
CN1CCCCC1Cn1cc(C(=O)c2cccc3ccccc23)c2ccccc21 (stereo not drawn) [AM1220]	0.26	not observed			
CCCCC/C=C\C/C=C\C/C=C\C/C=C\CCCC(=O)NCCO [AEA, N-arachidonoylethanolamine]	0.35	not observed	5.68		
CC1(C)C(C(=O)c2cn(CCCCCF)c3ccccc23)C1(C)C [XLR-11]	0.39	not observed			
CCCC(C)(C)c1ccc2c(c1)OC(C)(C)[C@@H]1CC=C(C)C[C@@H]21 [JWH-133]				5.09	no CB1 receptor-mediated activation
CCCCCn1cc(C(=O)C2C(C)(C)C2(C)C)c2ccccc21 [UR-144]	0.23	not observed			
COc1cc(CNC(=O)CCCC/C=C/C(C)C)ccc1O [capsaicin]		not observed			
